# Data as given in patent US5589568A (priority 1994, dated 1996).
# Like-named read-outs stand apart in the source and are kept apart here. Where a SMILES comes first, the peptide text is derived from it. Where no end group is shown, it is not given here. The star is where a group is joined. Dodecyl = CCCCCCCCCCCC*; X1 = CCCCCCCCCCCCCCCC*
# Tests used:
# Go = target: T1, Go (Bos taurus, UniProt P08239); assay: steady state GTPase activity of Go in phospholipid vesicles; assay type: biochemical, bovine; conditions: for Turnover number Go 10 μg/ml: 10 μg/ml amine; for Turnover number Go 10 μg/ml / Turnover number Go 100 μg/ml / GTPase Go 10 μM / GTPase Go 100 μM: 15 min at 20° C.; for Turnover number Go 10 μg/ml / GTPase Go 10 μM / GTPase Go 100 μM: PE/PC/PS vesicles; for Turnover number Go 100 μg/ml: 100 μg/ml amine; for Go ef. (apparent efficacy, maximum turnover number of GTPase activity): Table VI, receptor-based peptides; for Goo ef. (apparent efficacy, maximum turnover number of GTPase activity): Table IV; for GTPase Go 10 μM: 10 μM peptide; for GTPase Go 100 μM: 100 μM peptide; for ability to activate Gi and Go (in words): both Gi and Go, gramicidin S and dynorphin at 10 μM; for stimulation of GTPase activity: at higher concentrations, G protein not named in the sentence (Gi and Go tested)
# T1 construct: proteins were extracted from bovine cerebral cortical membranes; from tissue; host or cells: bovine brain (cerebral cortical membranes)
# T1 sequence (P08239 2-354 limits assumed): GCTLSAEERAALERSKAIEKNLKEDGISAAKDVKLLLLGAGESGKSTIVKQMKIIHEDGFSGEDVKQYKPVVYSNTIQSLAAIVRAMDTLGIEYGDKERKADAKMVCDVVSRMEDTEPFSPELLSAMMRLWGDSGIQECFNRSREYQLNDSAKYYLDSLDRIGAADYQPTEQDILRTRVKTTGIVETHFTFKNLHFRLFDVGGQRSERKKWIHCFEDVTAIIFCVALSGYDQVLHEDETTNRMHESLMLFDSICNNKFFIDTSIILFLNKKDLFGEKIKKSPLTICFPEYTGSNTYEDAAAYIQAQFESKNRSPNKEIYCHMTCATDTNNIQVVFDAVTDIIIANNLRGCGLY
# T1 sequence (P62871 2-340 partner limits assumed): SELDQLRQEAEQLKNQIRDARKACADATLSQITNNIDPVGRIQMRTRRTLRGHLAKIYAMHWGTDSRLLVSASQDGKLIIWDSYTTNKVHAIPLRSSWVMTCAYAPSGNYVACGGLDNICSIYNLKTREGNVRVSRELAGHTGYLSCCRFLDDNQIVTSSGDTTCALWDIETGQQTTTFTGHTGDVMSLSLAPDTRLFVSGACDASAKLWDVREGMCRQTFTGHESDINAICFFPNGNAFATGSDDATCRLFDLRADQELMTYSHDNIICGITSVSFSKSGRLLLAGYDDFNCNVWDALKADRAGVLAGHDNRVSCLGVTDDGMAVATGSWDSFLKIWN
# T1 sequence (P63212 2-68 partner limits assumed): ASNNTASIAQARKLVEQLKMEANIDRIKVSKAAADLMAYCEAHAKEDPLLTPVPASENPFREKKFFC
# Description: (§1) G proteins were reconstituted into phospholipid vesicles composed of dioleoyl-PC/bovine brain PS/1-palmitoyl,2-oleoyl-PE (3:4:3) as reported previously by Higashijima et al., 1988, incorporated herein by reference.
# Gi = assay: steady state GTPase activity of Gi in phospholipid vesicles; assay type: biochemical, rabbit; conditions: for Turnover number Gi 10 μg/ml: 10 μg/ml amine; for Turnover number Gi 10 μg/ml / Turnover number Gi 100 μg/ml / GTPase Gi 10 μM / GTPase Gi 100 μM: 30 min at 30° C.; for Turnover number Gi 100 μg/ml: 100 μg/ml amine; for GTPase Gi 10 μM: 10 μM peptide; for GTPase Gi 10 μM / GTPase Gi 100 μM: PE/PC/PS vesicles; for GTPase Gi 100 μM: 100 μM peptide;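 for all read-outs here: Steady-state GTP hydrolysis by Gi measured in a detergent-free buffer containing 1.1 mM MgSO4 plus the specified guanine nucleotide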
# Protocol: as §1
# The concentration of free Mg^2+ in assay medium that contains 5 mM EDTA and no added Mg^2+ is estimated to be 0.1-0.2 nM according to Brandt et al., 1988 and 1983.
# Gs = Gs (Homo sapiens, UniProt P63092); assay: steady state GTPase activity of Gs; assay type: biochemical
# Chain of Gs (P63092 whole entry): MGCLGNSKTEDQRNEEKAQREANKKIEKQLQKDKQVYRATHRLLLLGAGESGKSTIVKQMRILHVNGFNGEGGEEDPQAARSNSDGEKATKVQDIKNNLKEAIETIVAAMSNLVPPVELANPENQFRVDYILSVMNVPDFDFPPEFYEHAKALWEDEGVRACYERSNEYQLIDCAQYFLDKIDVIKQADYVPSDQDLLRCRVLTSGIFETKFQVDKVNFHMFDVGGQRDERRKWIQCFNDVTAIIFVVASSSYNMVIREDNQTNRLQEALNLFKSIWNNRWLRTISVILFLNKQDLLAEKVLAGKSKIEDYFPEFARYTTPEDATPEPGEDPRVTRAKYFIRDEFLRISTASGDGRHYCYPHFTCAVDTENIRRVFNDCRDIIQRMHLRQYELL
# Protocol: Methods for the assay of steady state GTP hydrolysis and GTPγS binding have been described previously by Higashijima, 1987, and Ferguson, 1986, and incorporated herein by reference. Unless noted otherwise, assays of steady state GTP hydrolysis and of the binding and dissociation of guanine nucleotides were carried out in the buffer described previously, but without detergent and with 1.1 mM MgSO4 and the nucleotide specified in the text. When necessary, the concentration of free Mg^2+ was adjusted using EDTA buffers as described previously by Higashijima, 1987, and incorporated herein by reference.
# The data set forth in the following tables represent data generated by the inventors employing the steady state GTP hydrolysis, expressed as molar turnover numbers, are described herein under the "Assay" section of the Experimental Procedures in Example 1. The data has been classified according to the criteria outlined below and the effects of each peptide and modified variant on Go, Gi, and Gs have been tabulated. Table III below sets forth data generated for various mastoparan analogues designed by the inventors, in comparison with the various naturally-occurring mastoparans (e.g., MP, MP-A and MP-T). Table IV sets forth similar data generated for various receptor-based peptides designed by the inventors based on a consideration of various G-protein linked receptors.
# Apparent affinity (af.) and apparent efficacy (ef.) were estimated by EC50 and maximum turnover number of GTPase activity.
# [1] = Table VI, receptor-based peptides
# [2] = Table VI, receptor-based peptides, read-out: Gi af. (apparent affinity, estimated by EC50 of GTPase activity)
# [3] = Table IV, read-out: G1 af. (apparent affinity, estimated by EC50 of GTPase activity)
compound,measurement,setting,value
"CCCCCCCCCCCCCC[N+](C)(C)Cc1ccccc1.[Cl-] [BAC (C14), reference compound]",Turnover number Go 10 μg/ml,Go,0.9 min⁻¹
same,Turnover number Go 100 μg/ml,Go,0.2 min⁻¹
same,Turnover number Gi 10 μg/ml,Gi,0.04 min⁻¹
same,Turnover number Gi 100 μg/ml,Gi,< 0.01 min⁻¹
"CCCCCCCCCCCCCCCC[N+](C)(C)Cc1ccccc1.[Cl-] [BAC (C16 ), reference compound]",Turnover number Go 10 μg/ml,Go,1.4 min⁻¹
same,Turnover number Go 100 μg/ml,Go,0.08 min⁻¹
same,Turnover number Gi 10 μg/ml,Gi,0.04 min⁻¹
same,Turnover number Gi 100 μg/ml,Gi,< 0.01 min⁻¹
"CCCCCCCCCCCCCCCCCC[N+](C)(C)Cc1ccccc1.[Cl-] [BAC (C18 ), reference compound]",Turnover number Go 10 μg/ml,Go,1.1 min⁻¹
same,Turnover number Go 100 μg/ml,Go,0.3 min⁻¹
same,Turnover number Gi 10 μg/ml,Gi,0.03 min⁻¹
same,Turnover number Gi 100 μg/ml,Gi,< 0.01 min⁻¹
"CCCC[N+](CCCC)(CCCC)Cc1ccccc1.[Cl-] [BzBu3 NCl, reference compound]",Turnover number Go 10 μg/ml,Go,0.07 min⁻¹
same,Turnover number Go 100 μg/ml,Go,0.07 min⁻¹
same,Turnover number Gi 10 μg/ml,Gi,0.04 min⁻¹
same,Turnover number Gi 100 μg/ml,Gi,0.04 min⁻¹
"CCCCCCCCCCCC[N+](C)(C)C.[Cl-] [C12 Me3 NCl, reference compound]",Turnover number Go 10 μg/ml,Go,0.1 min⁻¹
same,Turnover number Go 100 μg/ml,Go,0.5 min⁻¹
same,Turnover number Gi 10 μg/ml,Gi,0.04 min⁻¹
same,Turnover number Gi 100 μg/ml,Gi,0.04 min⁻¹
"CCCCCCCCCCCCN [C12 NH3 Cl, dodecylamine]",Turnover number Go 10 μg/ml,Go,0.18 min⁻¹
same,Turnover number Go 100 μg/ml,Go,0.61 min⁻¹
same,Turnover number Gi 10 μg/ml,Gi,0.06 min⁻¹
same,Turnover number Gi 100 μg/ml,Gi,0.31 min⁻¹
same,stimulation of Gi by amines (in words),Gi; Table III,stimulated Gi significantly
CCCCCCCCCCCCSC[C@H](N)C(=O)N1CCC[C@H]1C(=O)N[C@@H](Cc1ccccc1)C(=O)N[C@@H](CCCNC(=N)N)C(=O)N[C@@H](Cc1ccc(O)cc1)C(=O)N[C@@H](CCC(N)=O)C(=O)N[C@@H](CO)C(=O)N[C@@H](CC(C)C)C(=O)N[C@@H](CCSC)C(=O)N[C@H](C(=O)N[C@@H](CCCNC(=N)N)C(=O)N[C@@H](C)C(=O)N[C@@H](CCCNC(=N)N)C(=O)N[C@@H](C)C(=O)N[C@@H](CCCCN)C(=O)N[C@H](C(=O)N[C@H](C(N)=O)[C@@H](C)CC)C(C)C)[C@@H](C)O [C12-ER39] (H-C(Dodecyl)PFRYQSLMTRARAKVI-NH2; N-terminus assumed),"Go ef. (apparent efficacy, maximum turnover number of GTPase activity)",Go,G (Good (G): 5-10 fold)
same,"Gi ef. (apparent efficacy, maximum turnover number of GTPase activity)",Gi; [1],G (Good (G): 5-10 fold)
same,EC50,Gi; [2],3 to 10 µM
same,"Gs ef. (apparent efficacy, maximum turnover number of GTPase activity)",Gs; [1],F (Fair (F): 2-5 fold)
CCCCCCCCCCCCCCCCSC[C@H](NC(=O)[C@H](CC(C)C)NC(=O)[C@H](C)NC(=O)[C@H](CCCCN)NC(=O)[C@H](C)NC(=O)[C@H](CC(C)C)NC(=O)[C@H](C)NC(=O)[C@H](C)NC(=O)[C@H](CC(C)C)NC(=O)[C@H](C)NC(=O)[C@H](CCCCN)NC(=O)[C@H](Cc1ccc(O)cc1)NC(=O)[C@H](CC(N)=O)NC(=O)[C@@H](N)[C@@H](C)CC)C(N)=O [C16-ER17] (H-INYKALAALAKALC(X1)-NH2; N-terminus assumed),"Goo ef. (apparent efficacy, maximum turnover number of GTPase activity)",Go,E (Excellent (E): 30-10 fold)
same,"G1 ef. (apparent efficacy, maximum turnover number of GTPase activity)",Gi; Table IV,E (Excellent (E): 30-10 fold)
same,EC50,Gi; [3],< 3 µM
same,"Gs ef. (apparent efficacy, maximum turnover number of GTPase activity)",Gs; Table IV,F (Fair (F): 2-5 fold)
"CCCCCCCCCCCCCCCCCC[N+](C)(C)C.[Cl-] [C18 Me3 NCl, reference compound]",Turnover number Go 10 μg/ml,Go,0.61 min⁻¹
same,Turnover number Go 100 μg/ml,Go,< 0.01 min⁻¹
same,Turnover number Gi 10 μg/ml,Gi,0.04 min⁻¹
same,Turnover number Gi 100 μg/ml,Gi,< 0.01 min⁻¹
CC[C@H](C)[C@H](NC(=O)[C@H](CCCNC(=N)N)NC(=O)[C@H](Cc1ccc(O)cc1)NC(=O)[C@H](CC(C)C)NC(=O)[C@H](CC(C)C)NC(=O)[C@H](CC(C)C)NC(=O)[C@@H](NC(=O)[C@H](CC(C)C)NC(=O)[C@@H](NC(=O)[C@H](CC(C)C)NC(=O)[C@H](CC(C)C)NC(=O)[C@@H](NC(=O)[C@H](C)NC(=O)[C@@H](NC(=O)[C@H](CC(C)C)NC(C)=O)[C@@H](C)O)C(C)C)[C@@H](C)O)[C@@H](C)O)C(=O)N[C@@H](CC(N)=O)C(=O)N[C@@H](CC(C)C)C(=O)N[C@@H](CCCCN)C(=O)N[C@@H](C)C(=O)N[C@@H](CC(C)C)C(=O)N[C@@H](C)C(=O)N[C@@H](C)C(=O)N[C@@H](CC(C)C)C(=O)N[C@@H](C)C(=O)N[C@@H](CCCCN)C(=O)N[C@@H](C)C(=O)N[C@@H](CC(C)C)C(=O)N[C@@H](CC(C)C)C(N)=O [ER26],"Goo ef. (apparent efficacy, maximum turnover number of GTPase activity)",Go,F (Fair (F): 2-5 fold)
same,"G1 ef. (apparent efficacy, maximum turnover number of GTPase activity)",Gi; Table IV,G (Good (G): 5-10 fold)
same,EC50,Gi; [3],3 to 10 µM
same,"Gs ef. (apparent efficacy, maximum turnover number of GTPase activity)",Gs; Table IV,F (Fair (F): 2-5 fold)
"CC[C@H](C)[C@H](NC(=O)CN)C(=O)NCC(=O)N[C@@H](C)C(=O)N[C@H](C(=O)N[C@@H](CC(C)C)C(=O)N[C@@H](CCCCN)C(=O)N[C@H](C(=O)N[C@@H](CC(C)C)C(=O)N[C@H](C(=O)N[C@H](C(=O)NCC(=O)N[C@@H](CC(C)C)C(=O)N1CCC[C@H]1C(=O)N[C@@H](C)C(=O)N[C@@H](CC(C)C)C(=O)N[C@H](C(=O)N[C@@H](CO)C(=O)N[C@@H](Cc1c[nH]c2ccccc12)C(=O)N[C@H](C(=O)N[C@@H](CCCCN)C(=O)N[C@@H](CCCNC(=N)N)C(=O)N[C@@H](CCCCN)C(=O)N[C@@H](CCCNC(=N)N)C(=O)N[C@@H](CCC(N)=O)C(=O)N[C@@H](CCC(N)=O)C(N)=O)[C@@H](C)CC)[C@@H](C)CC)[C@@H](C)O)[C@@H](C)O)C(C)C)C(C)C [Melittin, reference compound]",GTPase Go 10 μM,Go,0.63 min⁻¹
same,GTPase Go 100 μM,Go,0.56 min⁻¹
same,ability to activate Gi and Go (in words),Go; GTPase,potency and efficacy roughly equivalent to that of mastoparan
same,GTPase Gi 10 μM,Gi,"0,37 min^-1"
same,GTPase Gi 100 μM,Gi,0.40 min⁻¹
"NC(=O)[C@@H]1CCCN1C(=O)[C@H](Cc1cnc[nH]1)NC(=O)[C@@H]1CCC(=O)N1 [TRH, thyrotropin releasing hormone, reference compound]",GTPase Go 100 μM,Go,0.06 min⁻¹
same,GTPase Gi 100 μM,Gi,0.03 min⁻¹
"Ac-WKKLLKLLKKLLKL-NH2 [CBP6, reference compound]",GTPase Go 10 μM,Go,0.76 min⁻¹
same,GTPase Go 100 μM,Go,0.38 min⁻¹
same,ability to activate Gi and Go (in words),Go; GTPase,quite active
same,GTPase Gi 10 μM,Gi,0.51 min⁻¹
same,GTPase Gi 100 μM,Gi,0.06 min⁻¹
"Angiotensin II (DRVYIHPF; Angiotensin-2; UniProt P01019 25-32, looked up) [reference compound]",GTPase Go 100 μM,Go,0.31 min⁻¹
same,stimulation of GTPase activity,Go,more than 3 fold
same,GTPase Gi 100 μM,Gi,0.23 min⁻¹
CPFRYQSLNTRARAKVI-NH2 [ER39],"Go ef. (apparent efficacy, maximum turnover number of GTPase activity)",Go,F (Fair (F): 2-5 fold)
same,"Gi ef. (apparent efficacy, maximum turnover number of GTPase activity)",Gi; [1],P (Poor (P): less than 2 fold)
same,EC50,Gi; [2],> 100 µM
same,"Gs ef. (apparent efficacy, maximum turnover number of GTPase activity)",Gs; [1],F (Fair (F): 2-5 fold)
Calcitonin [reference compound],GTPase Go 100 μM,Go,0.09 min⁻¹
same,GTPase Gi 100 μM,Gi,0.01 min⁻¹
Dynorphin [reference compound],GTPase Go 10 μM,Go,0.13 min⁻¹
same,GTPase Go 100 μM,Go,0.33 min⁻¹
same,ability to activate Gi and Go (in words),Go; GTPase,somewhat stimulatory
same,GTPase Gi 100 μM,Gi,0.10 min⁻¹
Gramicidin S [reference compound],GTPase Go 10 μM,Go,0.17 min⁻¹
same,GTPase Go 100 μM,Go,0.47 min⁻¹
same,ability to activate Gi and Go (in words),Go; GTPase,somewhat stimulatory
same,GTPase Gi 10 μM,Gi,0.13 min⁻¹
same,GTPase Gi 100 μM,Gi,0.31 min⁻¹
Melanostatin [reference compound],GTPase Go 100 μM,Go,0.05 min⁻¹
same,GTPase Gi 100 μM,Gi,0.03 min⁻¹
REHKALKTLGIIC-NH2 [ER40],EC50,Go,> 100 µM
same,EC50,"Gs; Table VI, receptor-based peptides, read-out: Gs af. (apparent affinity, estimated by EC50 of GTPase activity)",30 to 100 µM
"RPPGFSPFR [Bradykinin, reference compound]",GTPase Go 100 μM,Go,0.05 min⁻¹
same,GTPase Gi 100 μM,Gi,0.03 min⁻¹
Substance P [reference compound],GTPase Go 100 μM,Go,0.25 min⁻¹
same,stimulation of Go,"Go; GTPase, Table II",more than 4 fold
same,GTPase Gi 100 μM,Gi,0.09 min⁻¹
same,stimulation of Gi,"Gi; GTPase, Table II",more than 4 fold
"[D-Ala^2 ]Leu-enkephalin [DALE, reference compound]",GTPase Go 100 μM,Go,0.06 min⁻¹
same,GTPase Gi 100 μM,Gi,0.02 min⁻¹
"luteinizing hormone releasing hormone [LHRH, reference compound]",GTPase Go 100 μM,Go,0.04 min⁻¹
same,GTPase Gi 100 μM,Gi,0.03 min⁻¹
α-Mating factor [reference compound],GTPase Go 100 μM,Go,0.19 min⁻¹
same,stimulation of GTPase activity,Go,more than 3 fold
same,GTPase Gi 100 μM,Gi,0.05 min⁻¹
